Columns and labels:
Type in all cases: cell-based, mouse
hippocampal neurons [1] = assay: Indirect neurotoxicity of conditioned medium from AβO-treated microglia on hippocampal neurons; conditions: microglia co-treated 24 hrs with 1400 W or L-NIL; 25% CM; FIG. 8B
Protocol: Hippocampal neuronal cultures were prepared from newborn wild type C57BL/6J mice according to the method of Xiang et al (26). Neurons were cultured in NB/B27 at a density of 2.5×10^5 cells/well in 12-well plates or 8×10^5 cells/well in 6-well plates for at least 14 days before they were treated with microglia CM.
Hippocampal neurons were prepared as described above and were plated onto 96-well plate at a density of 6×10^4 cells/well and cultured for 14 days. CM from microglia cultures was added onto neurons with indicated dilutions, and cultures were incubated for 24 hrs.
For immunofluorescent staining of neurons, cultures were fixed in 4% paraformaldehyde and stained with anti-PSD95 (1:200, Cell Signaling), anti-MAP2 (1:500, Chemicon) and anti-acetylated α-tubulin (1:250, Zymed). […] Immunostained images were observed under a Nikon Eclipse E600 microscope and photographed by a digital camera (SPOT RTke, SPOT Diagnostics, Sterling Heights, Mich.).
For quantification of the PSD95-immunoreactive puncta along the dendrites, photomicrographs of PSD95 immunostained cultures were randomly taken from each culture condition. The images were transformed to 8 bit gray scale and analyzed with the Image J program. The number of puncta in each photomicrograph was counted and normalized by dendritic length. The photography and analysis were conducted in an investigator-blinded manner

microglia [2] = assay: Assay for nitric oxide (nitrite) in microglia conditioned medium; conditions: for AβO-induced increase of microglia NO production: 5 μM 1400 W, 100 μM L-NIL, FIG. 8A
hippocampal slices = assay: AβO-treated organotypic hippocampal slice cultures; conditions: iNOS inhibitors applied 1 hr prior to AβO; for AβO-induced NO production by hippocampal slices: FIG. 8C; for AβO-induced neuronal damage (PI uptake) in hippocampal slices: FIG. 8D
Protocol: Hippocampal slice cultures (400 μm-thick) were prepared from 7-day-old C57BL/6J mice as previously described (25) and cultured for 10 days in vitro before use. Neuronal damage in the slices was monitored by PI uptake following Bernardino et al (27). PI itself is not toxic to neurons (27). […] After 24 hrs, the slices were observed under a Nikon Eclipse E600 microscope and the red (630 nm) fluorescence emitted by PI taken up by damaged cells was photographed by a digital camera (SPOT RTke, SPOT Diagnostics, Sterling Heights, Mich.) with fixed exposure time.
For immunofluorescent staining of neurons, cultures were fixed in 4% paraformaldehyde and stained with anti-PSD95 (1:200, Cell Signaling), anti-MAP2 (1:500, Chemicon) and anti-acetylated α-tubulin (1:250, Zymed). For immunofluorescent staining of microglia, cultures or hippocampal slices were fixed in 4% paraformaldehyde and stained with anti-IBA1 (1:500, Wako Chemicals USA), anti-SRA (E-20, 1:200, Santa Cruz Biotechnology), and anti-CD11b (1:200, AbD Serotec USA, Raleigh, N.C.). The fixed cells or hippocampal slices were incubated with antibodies for overnight at 4° C. followed by secondary Alexa488 conjugated anti-mouse or Alexa568 conjugated anti-rabbit antibody (1:700, Molecular probes). Immunostained images were observed under a Nikon Eclipse E600 microscope and photographed by a digital camera (SPOT RTke, SPOT Diagnostics, Sterling Heights, Mich.).
(§1) To obtain lysates, cells or tissues were washed with ice-cold PBS and incubated with a buffer containing 50 mmol/L Tris-HCl (pH 7.4), 150 mmol/L NaCl, 2% SDS, proteinase inhibitor cocktail (Sigma), and phosphatase inhibitor cocktail (Sigma). Lysates were briefly sonncated and cleared by centrifugation at 50,000 rpm for 10 min. Equivalent amounts of protein were analyzed by Tris/HCL gel electrophoresis. Proteins were transferred to polyvinylidene difluoride membranes and probed with antibodies. Visualization was performed using enhanced chemiluminescence (ECL, Amersham Pharmacia, Piscataway, N.J.).
Conditioned medium collected from microglia cultures (1×10^5/0.75 cm^2) and hippocampal slices treated with Aβ for 24 hrs were analyzed by the Nitric Oxide Quantization Kit according to the protocol of the manufacturer (Active Motif, Carlsbad, Calif.). Data were normalized to the amount of total protein.

microglia [3] = assay: AβO-induced microglia proliferation/activation (cell number); conditions: for microglia cell counts, % of solvent-treated controls: mean±S.E
p38MAPK = p38MAPK phosphorylation in microglia (Western blot); conditions: AβO, 30 minutes
Protocol: Primary microglia cultures derived from newborn C57BL/6J mice were prepared from mixed glia cultures with the “shaking off” method described by Maezawa, I., et al.; (2006) FASEB J 20, 797-799. […] To obtain conditioned medium (CM) for treating neurons, microglia were first cultured in 24-well culture plates at a density of 1.3×10^5 cells/cm^2 for 24 hrs in DMEM with 10% fetal bovine serum (DMEM10). Cultures were washed extensively and changed to the Neurobasal medium with B27 supplement (NB/B27, Invitrogen) without serum and cultured for another 24 hrs. The NB/B27-based microglia CMs were collected, briefly centrifuged, and used immediately or frozen for future uses.
as §1
The following primary antibodies (dilutions) were used: anti-p38MAPK (1:1000, Cell Signaling Technology, Boston, Mass.), anti-phospho-p38MAPK (1:1000, Cell Signaling Technology), anti-Synaptophysin (1:1000, Abcam), anti-PSD95 (1:1000, cell signaling), anti-GRIP 1 (1:1000, UpState), anti-MAP2 (1:1000, Chemicon), anti-acetylated α-tubulin (1:2000, Zymed), and anti-β-actin (1:3000, Sigma). Secondary antibodies were HRP-conjugated anti-rabbit, anti-goat, or anti-mouse antibody (1:3000 Amersham).

hippocampal neurons [4] = assay: Viability of cultured hippocampal neurons, direct AβO; conditions: direct addition
NFκB = NFκB assay in microglia; conditions: AβO, 2 hrs
Protocol: The detection of cells with active NFκB was performed according to the method described by Franciosi, S., et al.; (2006) J Neurosci 26, 11652-11664. Briefly, microglia were plated as described above and treated with activators for 2 hrs. Cells were fixed and stained with anti-NF-κBp65 antibody (1:250, Chemicon) and with the nuclear dye DAPI.

## CC(=N)NCc1cccc(CN)c1 [1400 W, N-[(3-aminomethyl)benzyl]acetamidine, reference compound]
Hippocampal neurons [1]
  AβO-induced microglial neurotoxicity (neuronal viability): blocked
Microglia [2]
  AβO-induced increase of microglia NO production: prevented
Hippocampal slices
  AβO-induced NO production by hippocampal slices: blocked
  AβO-induced neuronal damage (PI uptake) in hippocampal slices: blocked

## Nc1c(/N=N/c2ccc(-c3ccc(/N=N/c4cc(S(=O)(=O)O)c5ccccc5c4N)cc3)cc2)cc(S(=O)(=O)O)c2ccccc12 [Congo red, reference compound]
Microglia [3]; 20 nM AβO, 24 hrs, A11 50 nM, CR 100 nM, FIG. 1D
  AβO mitogenic effect on microglia (cell numbers): blocked
Microglia [3]; soluble AD hippocampus extracts
  microglia activation / mitogenic effect induced by human brain AβO: blocked

## CC(=N)NCCCC[C@H](N)C(=O)O [L-NIL, N-iminoethyl-Llysine, reference compound]
Hippocampal neurons [1]
  AβO-induced microglial neurotoxicity (neuronal viability): blocked
Microglia [2]
  AβO-induced increase of microglia NO production: prevented
Hippocampal slices
  AβO-induced NO production by hippocampal slices: blocked
  AβO-induced neuronal damage (PI uptake) in hippocampal slices: blocked

## AβO: synthetic Aβ42 peptide oligomers, microglia activator
Microglia [3]
  AβO concentration at which microglia proliferation maximizes: around 50 nM
  AβO concentration at which microglia proliferation starts: 5 nM
Microglia [3]; 20 nM AβO, 24 hr
  microglia cell counts, % of solvent-treated controls: 184±8.59%
Microglia [3]; 20 nM AβO, 48 hr
  microglia cell counts, % of solvent-treated controls: 330±21.8%
p38MAPK
  phosphorylated p38MAPK, % of vehicle treatment control: 225±38%
Hippocampal neurons [4]
  AβO concentrations affecting viability of cultured hippocampal neurons: above 100 nM
Microglia [2]; AβO 24 hr, normalized to total cellular protein
  increase of NO release per cell: ~80%
NFκB
  increase of cells with active NFκB immunoreactivity: six-fold increase

## polyinosinic acid [poly I, reference compound]
Microglia [3]; 20 nM AβO 24 hrs, 100 ng/ml poly I, 10 μg/ml E-20, 20 μM doxycycline, 1 μM TRAM-34, FIG. 3
  AβO-induced microglia activation / proliferation: blocked
